# Laboratory results as given in patent publication US11267809B2, “BAF complex modulating compounds and methods of using the same” (THE BOARD OF TRUSTEES OF THE LELAND STANFORD JUNIOR …, priority 2017, dated 2022).
# Key:
# [1] = test system: HCT116 (ARID1A−/−) cell line; assay: Synergy viability assay, HCT116 ARID1A(-/-); type: cell-based, human
# Source text: SMARCA4, the primary target of our original screen, is present in both human BAF and PBAF complexes in cancer^12. PBAF complexes differ from BAF complexes by incorporation of specific subunits. Specifically, PBAF complexes contain ARID2 (as opposed to ARID1A/B), PHF10 (BAF45a) (as opposed to […] (BAF45d)), PBRM1, and lack the BAF-specific subunit SS18. PBAF specific subunits are also frequently mutated in cancer, specifically renal clear cell carcinomas and cholangiocarcinomas^33-36. To assess whether the lead compound is targeting BAF, PBAF complexes, or both, we constitutively knocked down ARID1A or ARID2 by lentiviral transduction of HCT116 cells and compared the BAFi/ATRi synergy to the wild-type (ARID1A+/+).
# Isogenic HCT116 ARID1A(+/+) and ARID1A(−/−) cell lines were originally obtained from Horizon Discovery. MCF-7, Cal-51, A-704, and MDA-MB-436, MDA-MB-468, HCC1143, HCC1187, HCC1954, and ACHN cell lines were obtained from American Type […]. All cell lines were grown in McCoy's 5a Media supplemented with 10% FBS.
# Viability assays were performed in 384-well plates. Cells were plated at 500 cells/well. Each drug was administered in 5-doses with 4 replicates per plate, and each 5×5 drug combination was administered with 8 replicates per plate, 24 hours after seeding. All error bars represent 4 or 8 technical replicates averaged over 3 independent experiments. Media containing fresh drug was replaced every 48 hours. After 5 days, cellular viability was measured using CellTitre blue, as described by the manufacturer.
# [2] = test system: ACHN renal clear cell carcinoma cell line; assay: Synergy viability assay, ACHN; type: cell-based, human; conditions: with VE-821, PBRM1 mutant line
# Source text: In ARID1A-deficient tumors, ATR inhibition is thought to trigger premature mitotic entry and chromosome instability that cannot be resolved, resulting in mitotic catastrophe^27. […] We sought to assess whether generic BAF inhibition might sensitize a host of cancers to ATR inhibition. We tested the efficacy of BAFi and ATRi on nine additional human cancer cell lines including seven Breast cancer cell lines (HCC1143, HCC1954, HCC1187, MDAMB-468, MDA-MB-436, Cal-51, MCF-7) and two renal clear cell carcinoma cell lines (A-704, and ACHN). Cal-51 and MCF-7 are both considered aggressive, highly mutated breast cancer cell lines with numerous COSMIC Census gene mutations (FIG. 10). HCC1143 and MDA-MB-468 are sporadic basal-likecancers, HCC1187 is a triple-negative breast cancer, and HCC1954 and MDA-MB-436 are BRCA1 mutant breast cancers which harbor single driver mutations. To assess synergy, each cell line was treated with 5 doses of VE-821 (1.25 uM-20 uM) and 5 doses of Baficillin1 (1.25 uM-20 uM), both independently and with all possible combinations. Like HCT-116 cells, Baficillin1 sensitized MCF-7 and Cal-51 cells lines to treatment with VE-821 (FIG. 6a).
# Viability assays were performed in 384-well plates. Cells were plated at 500 cells/well. […] After 5 days, cellular viability was measured using CellTitre blue, as described by the manufacturer.
structure (smiles),measurement,setting,value
CO[C@H]1CN(C)C(=O)c2cc(NC(=O)NC(C)C)ccc2OC[C@H](C)N(Cc2ccc(-c3ccccn3)cc2)C[C@@H]1C [Baficillin1],sensitivity (cell survival) compared to wild-type HCT116,"[1]; single agent, 5 continuous days",slightly less sensitive
same,combination index (CI −/−),"[1]; with VE-821, 5 days",1.44±0.12
same,combinatorial effects of BAFi/ATRi,[2],antagonism
